Assays:
A549 = test: Antiproliferative activity against human A549 cells assessed as inhibition of cell growth incubated for 72 hrs by CCK-8 assay; details: A549, 72 h
NCI-H1975 = test: Antiproliferative activity against human H1975 cells assessed as inhibition of cell growth incubated for 72 hrs by CCK-8 assay; details: NCI-H1975, 72 h
HeLa = test: Antiproliferative activity against human HeLa cells assessed as reduction in cell viability after 24 hrs by MTT assay; format: functional, cell-based

Row | SMILES | IC50 (A549) [µM] | IC50 (NCI-H1975) [µM] | IC50 (HeLa) [µM]
1 | CCNC1c2c(ccc3c2OCO3)-c2ccc3cc4c(cc3c2N1C)OCO4 (centres undefined) | 1.25 | 0.94 | 
2 | c1cc2c(cnc3c4cc5c(cc4ccc23)OCO5)c2c1OCO2 | > 30 | > 30 | 
3 | CCN1Cc2c(ccc3c2OCO3)-c2ccc3cc4c(cc3c21)OCO4 | > 30 | > 30 | 
4 | CN1c2c(ccc3cc4c(cc23)OCO4)-c2ccc3c(c2C1NC1CCCC1)OCO3 (centres undefined) | 1.97 | 1.57 | 
5 | CN1c2c(ccc3cc4c(cc23)OCO4)-c2ccc3c(c2C1NCc1ccccc1)OCO3 (centres undefined) | 4.35 | 3.13 | 
6 | COC1c2c(ccc3c2OCO3)-c2ccc3cc4c(cc3c2N1C)OCO4 (centres undefined) | 1.59 | 1.17 | 
7 | CN1c2c(ccc3cc4c(cc23)OCO4)-c2ccc3c(c2C1C#N)OCO3 (centres undefined) | 0.96 | 0.79 | 
8 | CCCNC1c2c(ccc3c2OCO3)-c2ccc3cc4c(cc3c2N1C)OCO4 (centres undefined) | 1.48 | 1 | 
9 | CCCN1Cc2c(ccc3c2OCO3)-c2ccc3cc4c(cc3c21)OCO4 | > 30 | > 30 | 
10 | CC(C)NC1c2c(ccc3c2OCO3)-c2ccc3cc4c(cc3c2N1C)OCO4 (centres undefined) | 1.46 | 0.96 | 
11 | Cn1c(=O)c2c3c(ccc2c2ccc4cc5c(cc4c21)OCO5)OCO3 | > 30 | > 30 | 
12 | C[n+]1cc2c3c(ccc2c2ccc4cc5c(cc4c21)OCO5)OCO3 [SANGUINARIUM CHLORIDE] | 1.59 | 1.32 | 2.43
13 | CN1Cc2c(ccc3c2OCO3)-c2ccc3cc4c(cc3c21)OCO4 [DIHYDROSANGUINARINE] | > 30 | 19.1 | 
14 | CC1c2c(ccc3c2OCO3)-c2ccc3cc4c(cc3c2N1C)OCO4 (centres undefined) | > 30 | > 30 | 

Reference: ChEMBL document CHEMBL4699398, “The synthesis and biological evaluation of sanguinarine derivatives as anti-non-small cell lung cancer agents” (RSC Med Chem, 2020)
